# Tested on: dermal collagen production
# Conditions: topical Niacin plus 585 nm pulsed dye laser irradiation versus irradiation alone
# Text: Tests have been carried out for studying the dermal collagen production following topical application of Niacin prior to irradiation with a 585 nm pulsed dye laser.
smiles,measurement,value
"O=C(O)c1cccnc1 [Niacin, nicotinic acid]",PIIINP levels (biochemical analysis),increase in the PIIINP levels above that of irradiation alone
